Experimental data as given in PMC8535866, “TMEM16A, a Homoharringtonine Receptor, as a Potential Endogenic Target for Lung Cancer Treatment” (International Journal of Molecular Sciences, 2021).
Changes are numbered by the printed parent chain.

Assays:
TMEM16A [1] = biological target: T1, TMEM16A (Mus musculus, UniProt Q8BHY3); assay: whole-cell patch clamp in LA795 cells, Hill fit; format: cell-based
T1 construct: gene Ano1; endogenous TMEM16A in LA795 cells
T1 sequence (Q8BHY3 1-960): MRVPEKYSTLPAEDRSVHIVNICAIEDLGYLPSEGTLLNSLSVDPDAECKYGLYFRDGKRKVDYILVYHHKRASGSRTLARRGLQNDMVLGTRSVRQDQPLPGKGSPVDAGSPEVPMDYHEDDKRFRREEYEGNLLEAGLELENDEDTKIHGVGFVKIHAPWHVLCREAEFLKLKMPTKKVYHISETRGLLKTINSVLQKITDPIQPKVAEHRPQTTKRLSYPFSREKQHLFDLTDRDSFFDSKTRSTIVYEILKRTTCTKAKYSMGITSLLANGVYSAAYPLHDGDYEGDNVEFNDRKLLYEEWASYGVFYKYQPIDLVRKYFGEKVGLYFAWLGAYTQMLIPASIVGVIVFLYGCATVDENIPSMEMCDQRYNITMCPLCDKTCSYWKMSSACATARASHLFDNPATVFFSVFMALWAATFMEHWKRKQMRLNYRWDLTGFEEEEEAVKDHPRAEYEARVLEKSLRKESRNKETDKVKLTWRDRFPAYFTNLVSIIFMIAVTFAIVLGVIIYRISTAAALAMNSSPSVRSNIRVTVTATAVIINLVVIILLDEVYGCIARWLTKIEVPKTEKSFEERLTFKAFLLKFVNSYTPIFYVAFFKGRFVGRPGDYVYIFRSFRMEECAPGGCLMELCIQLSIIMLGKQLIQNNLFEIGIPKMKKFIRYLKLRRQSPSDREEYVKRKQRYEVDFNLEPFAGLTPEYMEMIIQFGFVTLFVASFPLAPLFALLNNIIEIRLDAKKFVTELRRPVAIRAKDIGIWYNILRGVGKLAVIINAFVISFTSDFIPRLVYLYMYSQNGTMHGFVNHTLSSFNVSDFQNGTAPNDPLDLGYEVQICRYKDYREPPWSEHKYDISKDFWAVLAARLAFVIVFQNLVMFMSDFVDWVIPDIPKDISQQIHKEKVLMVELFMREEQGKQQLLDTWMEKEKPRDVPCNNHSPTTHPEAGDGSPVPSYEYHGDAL

TMEM16A [2] = biological target: T2, TMEM16A (Mus musculus, UniProt Q8BHY3, K769A); assay: whole-cell patch clamp of TMEM16A mutant; format: cell-based
T2 construct: gene Ano1; TMEM16A mutant plasmid
T2 sequence (Q8BHY3 1-960 K769A): T1 sequence (Q8BHY3 1-960) with K769A

COC(=O)C[C@](O)(CCCC(C)(C)O)C(=O)O[C@@H]1C(OC)=C[C@]23CCCN2CCc2cc4c(cc2[C@H]13)OCO4 [HHT, Homoharringtonine]
IC50 (TMEM16A [1]): 11.4 ± 1.68 µM
IC50 (TMEM16A [2]): 70.8 ± 24.3 µM
